Reference: ChEMBL document CHEMBL1201862, “PubChem BioAssay data set” (2004)
Active and inactive are the calls of the source.

Experiments:
Streptokinase A = biological target: T1, Streptokinase A (Streptococcus pyogenes serotype M1, UniProt P10520); assay: S. pyogenes streptokinase expression inhibitors, potency, dose response, plasminogen activation absorbance, OD405 (AID 1914); assay type: functional, Streptococcus pyogenes M1 GAS;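 also: secreted streptokinase activity via plasminogen activation per viability signal from cell pellet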
T1 sequence (P10520 whole entry): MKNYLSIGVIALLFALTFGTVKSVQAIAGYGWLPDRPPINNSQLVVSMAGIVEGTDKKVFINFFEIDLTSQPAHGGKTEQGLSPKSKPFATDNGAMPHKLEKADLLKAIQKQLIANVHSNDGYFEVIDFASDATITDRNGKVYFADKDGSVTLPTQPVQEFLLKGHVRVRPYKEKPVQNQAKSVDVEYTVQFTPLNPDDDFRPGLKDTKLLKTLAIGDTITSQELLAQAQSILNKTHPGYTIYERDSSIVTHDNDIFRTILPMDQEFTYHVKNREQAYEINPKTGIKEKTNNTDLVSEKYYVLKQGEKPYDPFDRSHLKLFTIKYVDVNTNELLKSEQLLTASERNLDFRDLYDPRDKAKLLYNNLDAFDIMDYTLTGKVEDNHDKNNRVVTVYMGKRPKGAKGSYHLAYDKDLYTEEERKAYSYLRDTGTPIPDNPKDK

INS1 = assay: beta cell apoptosis inhibitors, cytokine rescue, dose response, luminescence, retest (AID 449756); assay type: functional, cell-based; conditions: Rattus norvegicus;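 also: cell death triggered by IL-1 beta plus TNF-alpha plus IFN-gamma mixture; protective hits raise ATP signal compared with cytokine alone wells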
[1] = biological target: T2, Replicative DNA helicase DnaB (Mycobacterium tuberculosis, UniProt P9WMR3); assay: DnaB intein splicing inhibitors, dose response, biochemical, cell-free fluorescence (AID 449749); assay type: functional
T2 sequence (P9WMR3 whole entry): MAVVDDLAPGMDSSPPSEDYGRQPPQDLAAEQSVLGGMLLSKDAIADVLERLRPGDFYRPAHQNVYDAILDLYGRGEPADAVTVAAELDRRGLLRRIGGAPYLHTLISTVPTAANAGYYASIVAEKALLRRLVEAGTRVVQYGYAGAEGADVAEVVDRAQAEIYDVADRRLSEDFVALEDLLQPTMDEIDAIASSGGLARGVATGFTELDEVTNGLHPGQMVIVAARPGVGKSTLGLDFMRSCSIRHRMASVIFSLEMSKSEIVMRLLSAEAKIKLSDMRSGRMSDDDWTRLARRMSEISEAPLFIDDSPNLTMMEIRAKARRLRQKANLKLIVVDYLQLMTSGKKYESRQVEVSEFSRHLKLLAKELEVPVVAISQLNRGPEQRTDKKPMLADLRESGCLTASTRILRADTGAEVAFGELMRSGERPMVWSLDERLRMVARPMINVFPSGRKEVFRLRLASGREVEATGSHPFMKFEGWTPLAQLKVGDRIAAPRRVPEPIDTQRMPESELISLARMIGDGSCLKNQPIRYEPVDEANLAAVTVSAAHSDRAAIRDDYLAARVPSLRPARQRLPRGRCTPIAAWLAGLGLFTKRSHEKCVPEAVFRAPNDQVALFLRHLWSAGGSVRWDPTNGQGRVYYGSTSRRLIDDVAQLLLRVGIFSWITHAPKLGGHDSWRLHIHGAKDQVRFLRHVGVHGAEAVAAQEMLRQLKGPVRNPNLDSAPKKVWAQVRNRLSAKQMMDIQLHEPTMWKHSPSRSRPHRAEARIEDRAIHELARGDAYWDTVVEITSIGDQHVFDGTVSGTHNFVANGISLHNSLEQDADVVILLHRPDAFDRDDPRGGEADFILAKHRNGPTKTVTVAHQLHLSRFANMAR

[2] = Intein inhibitors as potential Tuberculosis drugs, a cytotoxicity screen. [Related pubchem assays (depositor defined):AID2221, AID2223, AID434968, AID435010, AID449749, AID449750, AID489010]; assay type: functional
[3] = test system: Streptococcus sp. 'group A'; assay: growth inhibition of control SK(-) GAS strain, dose response, counter-screen for streptokinase expression inhibitor project, luminescence, kanamycin, BacTiterGlo, confirmation (AID 1900); assay type: functional, organism-based
Streptococcus = assay: Group A Streptococcus viability loss, dose response, counter-screen for streptokinase expression inhibitor project, luminescence, BacTiterGlo (AID 1915); assay type: functional, organism-based;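 also: potency for reduction of bacterial viability or growth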
Caspase-6 = biological target: T3, Caspase-6 (Homo sapiens, UniProt P55212); assay: human caspase-6 inhibitors, dose response, biochemical, VEID-R110 fluorescence, cherry-pick (AID 720632)
T3 sequence (P55212 whole entry): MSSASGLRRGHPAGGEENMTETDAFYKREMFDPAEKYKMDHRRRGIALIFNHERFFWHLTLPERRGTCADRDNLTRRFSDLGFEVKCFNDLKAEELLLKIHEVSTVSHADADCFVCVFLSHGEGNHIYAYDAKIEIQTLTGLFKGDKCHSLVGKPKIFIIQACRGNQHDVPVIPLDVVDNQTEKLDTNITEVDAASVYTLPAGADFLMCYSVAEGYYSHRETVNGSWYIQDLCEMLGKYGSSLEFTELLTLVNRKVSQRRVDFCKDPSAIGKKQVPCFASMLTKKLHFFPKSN

[4] = biological target: E3 ubiquitin-protein ligase UHRF1 (Homo sapiens, UniProt Q96T88); assay: Counterscreen for inhibitors of 5-meCpG-binding domain protein 2 (MBD2): TRFRET-based biochemical high throughput dose response assay to identify inhibitors of binding of ubiquitin-like with PHD and ring finger domains 1 (UHRF1) to methylated oligonucleotide.
Protein RecA = biological target: T4, Protein RecA (Mycobacterium tuberculosis, UniProt P9WHJ3); assay: Fluorescence Cell-Free Homogeneous Dose Retest to Identify Inhibitors of RecA-Intein Splicing Activity. [Related pubchem assays (depositor defined):AID2097, AID2223, AID489010, AID492950]; assay type: functional
T4 sequence (P9WHJ3 whole entry): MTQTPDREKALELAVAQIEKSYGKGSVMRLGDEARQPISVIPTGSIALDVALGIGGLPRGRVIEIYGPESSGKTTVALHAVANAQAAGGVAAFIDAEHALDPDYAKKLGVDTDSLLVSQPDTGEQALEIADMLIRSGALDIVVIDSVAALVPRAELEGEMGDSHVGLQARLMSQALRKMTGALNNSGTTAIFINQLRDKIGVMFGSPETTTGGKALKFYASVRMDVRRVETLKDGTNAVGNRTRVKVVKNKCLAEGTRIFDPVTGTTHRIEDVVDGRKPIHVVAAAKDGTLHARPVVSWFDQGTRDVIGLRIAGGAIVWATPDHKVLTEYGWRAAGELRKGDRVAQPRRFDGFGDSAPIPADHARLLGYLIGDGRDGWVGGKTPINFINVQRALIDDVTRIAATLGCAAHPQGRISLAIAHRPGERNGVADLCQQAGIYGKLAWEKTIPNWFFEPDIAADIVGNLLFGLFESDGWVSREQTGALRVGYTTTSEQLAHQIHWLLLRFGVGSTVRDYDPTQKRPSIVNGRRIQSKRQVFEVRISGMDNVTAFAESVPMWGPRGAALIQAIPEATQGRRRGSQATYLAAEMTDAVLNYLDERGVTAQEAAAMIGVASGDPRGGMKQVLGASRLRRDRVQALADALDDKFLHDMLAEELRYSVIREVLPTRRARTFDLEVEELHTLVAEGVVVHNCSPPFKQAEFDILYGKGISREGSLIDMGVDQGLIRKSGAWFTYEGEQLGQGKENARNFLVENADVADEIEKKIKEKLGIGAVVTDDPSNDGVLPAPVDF

Transthyretin = Transthyretin (Homo sapiens, UniProt P02766); assay: Luminescence-based cell-based high throughput dose response assay to identify activators of Transthyretin (TTR) transcription.; assay type: functional
[5] = SK-MEL-5 parental cell viability reduction, dose response, orthogonal assay for MITF inhibitor project, CellTiter-Glo luminescence, dry powder, set 8 (AID 651586); assay type: functional, cell-based
[6] = MITF Orthogonal Assay: SK-MEL-5 CTG Assay Measured in Cell-Based System Using Plate Reader - 2084-02_Inhibitor_Dose_DryPowder_Activity_Set5.; assay type: functional
[7] = A375 melanoma cell cytotoxicity, dose response, counter-screen for MITF inhibitor project, CellTiter-Glo luminescence, dry powder, set 7 (AID 624490); assay type: functional, cell-based; conditions: A-375
[8] = SK-MEL-5 parental line viability, dose response, MITF inhibitor project, cell-based, CellTiter-Glo, dry powder, set 6 (AID 624429); assay type: functional
[9] = MITF Measured in Cell-Based System Using Plate Reader - 2084-01_Inhibitor_Dose_DryPowder_Activity_Set6.; assay type: functional
[10] = MITF Orthogonal Assay: MALME3 CTG Assay Measured in Cell-Based System Using Plate Reader - 2084-04_Inhibitor_Dose_DryPowder_Activity_Set6.; assay type: functional; conditions: MALME-3
[11] = MALME3 melanoma cell viability reduction, dose response, orthogonal assay for MITF inhibitor project, CellTiter-Glo luminescence, dry powder, set 5 (AID 651584); assay type: functional, cell-based; conditions: MALME-3
[12] = cytotoxicity in primary human melanocytes, dose response, cytotoxicity control, cell-based, plate reader, dry powder (AID 651920); assay type: functional
[13] = TRPM1 promoter luciferase reporter signal decrease, dose response, MITF inhibitor project, cell-based, SK-MEL-5, dry powder, set 9 (AID 651588); assay type: functional
[14] = MITF Measured in Cell-Based System Using Plate Reader - 2084-01_Inhibitor_Dose_DryPowder_Activity_Set7.; assay type: functional
[15] = A375 melanoma cell viability loss, dose response, counter-screen for MITF inhibitor project, CellTiter-Glo luminescence, dry powder, set 4 (AID 624364); assay type: functional, cell-based; conditions: A-375;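 also: A375 melanoma cells are MITF independent so this is a counter screen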
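For CC50 in this document: cells exposed to compound for 72 hours before luminescence readout.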

E3 ubiquitin-protein ligase UHRF1, sequence (Q96T88 whole entry, the tested form may be a part): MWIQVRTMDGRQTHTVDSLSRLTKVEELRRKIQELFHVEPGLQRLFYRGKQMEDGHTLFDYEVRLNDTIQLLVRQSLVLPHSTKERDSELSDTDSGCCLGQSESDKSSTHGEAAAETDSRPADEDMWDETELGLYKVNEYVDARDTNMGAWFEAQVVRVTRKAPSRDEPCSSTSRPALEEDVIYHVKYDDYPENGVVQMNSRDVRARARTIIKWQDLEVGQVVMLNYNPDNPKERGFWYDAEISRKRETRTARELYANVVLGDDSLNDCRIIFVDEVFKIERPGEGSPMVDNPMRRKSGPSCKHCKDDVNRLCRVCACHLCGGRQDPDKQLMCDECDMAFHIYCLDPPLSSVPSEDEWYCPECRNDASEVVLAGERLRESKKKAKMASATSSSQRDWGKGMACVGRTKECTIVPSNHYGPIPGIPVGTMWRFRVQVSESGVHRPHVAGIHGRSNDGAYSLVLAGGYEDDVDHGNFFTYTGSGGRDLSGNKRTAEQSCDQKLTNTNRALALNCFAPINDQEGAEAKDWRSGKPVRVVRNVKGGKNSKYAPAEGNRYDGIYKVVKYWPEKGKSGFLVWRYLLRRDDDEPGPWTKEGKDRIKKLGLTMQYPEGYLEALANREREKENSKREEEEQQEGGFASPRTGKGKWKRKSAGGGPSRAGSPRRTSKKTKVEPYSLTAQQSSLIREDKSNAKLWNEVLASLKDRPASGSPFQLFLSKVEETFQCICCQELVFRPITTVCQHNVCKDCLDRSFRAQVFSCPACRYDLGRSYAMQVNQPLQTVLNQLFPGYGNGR

CCN(CC)CCNC(=O)c1ccc2c(c1NCCO)C(=O)c1ccccc1C2=O
EC50 (Streptokinase A): > 150 µM (not active)
AC50 (INS1): 4.09 µM (active)
AC50 [1]: 4.5 µM (active)
CC50 [2]: 26.2 µM (active)
EC50 [3]: 12.9 µM (active)
EC50 (Streptococcus): > 150 µM (not active)
AC50 (Caspase-6): 5.96 µM (active)
IC50 [4]: > 43.8 µM (inactive)
EC50 (Protein RecA): 0.524 µM (active)

C=CCn1c(=O)c2c(nc3n2CC(C)CN3Cc2ccccc2)n(C)c1=O (stereo unspecified)
EC50 (Transthyretin): > 167 µM (inactive)

O=C1C=C(NS(=O)(=O)c2cccs2)C(=O)c2ccccc21
AC50 [5]: 32.8 µM (active)
AC50 [6]: 15.8 µM (active)
AC50 [7]: > 70 µM (inactive)
AC50 [8]: 13.3 µM (active)
AC50 [9]: 6.01 µM (active)
AC50 [10]: 57.6 µM (active)
AC50 [11]: 57.6 µM (active)
AC50 [12]: 17.6 µM (active)
AC50 [13]: 16.9 µM (active)
AC50 [14]: 5.89 µM (active)
AC50 [15]: > 70 µM (inactive)
